Assays:
Assay in all cases: relative viability (nuclei count vs DMSO), 5 days (fraction); higher = more cells survive
NCI-H1355 = tested on: NCI-H1355
How it was run: (§1)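 Medians of duplicate plates are given as relative viability. That measure is the nuclei count in treated wells divided by the count in vehicle wells. Counts were taken on 4× images of lung cancer cell lines in 1536-well plates, 5 days after pin-tool dosing the day after seeding with one drug alone or a fixed anchor-drug dose plus five library-drug doses (not always all listed) in √10 steps.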

LK-2 = tested on: LK-2
How it was run: as §1

A549 = tested on: A549
How it was run: as §1

EBC-1 = tested on: EBC-1
How it was run: as §1

Calu-6 = tested on: Calu-6
How it was run: as §1

COR-L 105 = tested on: COR-L 105
How it was run: as §1

IA-LM = tested on: IA-LM
How it was run: as §1

NCI-H520 = tested on: NCI-H520
How it was run: as §1

NCI-H1299 = tested on: NCI-H1299
How it was run: as §1

LCLC-103H = tested on: LCLC-103H
How it was run: as §1

NCI-H1703 = tested on: NCI-H1703
How it was run: as §1

COc1nc(C)cnc1NS(=O)(=O)c1cccnc1-c1ccc(-c2nnco2)cc1 [Zibotentan] + CS(=O)(=O)N1CCN(Cc2cc3nc(-c4cccc5[nH]ncc45)nc(N4CCOCC4)c3s2)CC1 [Pictilisib] (partner 1 µM)
relative viability (NCI-H1355; first compound 0.08 µM): 0.403
relative viability (NCI-H1355; first compound 0.253 µM): 0.424
relative viability (NCI-H1355; first compound 0.8 µM): 0.431
relative viability (NCI-H1355; first compound 2.53 µM): 0.436
relative viability (LK-2; first compound 0.08 µM): 0.542
relative viability (LK-2; first compound 0.253 µM): 0.471
relative viability (LK-2; first compound 0.8 µM): 0.55
relative viability (LK-2; first compound 2.53 µM): 0.603
relative viability (A549; first compound 0.08 µM): 0.478
relative viability (A549; first compound 0.253 µM): 0.388
relative viability (A549; first compound 0.8 µM): 0.57
relative viability (A549; first compound 2.53 µM): 0.519
relative viability (EBC-1; first compound 0.08 µM): 0.369
relative viability (EBC-1; first compound 0.253 µM): 0.435
relative viability (EBC-1; first compound 0.8 µM): 0.486
relative viability (EBC-1; first compound 2.53 µM): 0.389
relative viability (Calu-6; first compound 0.08 µM): 0.868
relative viability (Calu-6; first compound 0.253 µM): 0.83
relative viability (Calu-6; first compound 0.8 µM): 0.881
relative viability (Calu-6; first compound 2.53 µM): 1.03
relative viability (COR-L 105; first compound 0.08 µM): 0.523
relative viability (COR-L 105; first compound 0.253 µM): 0.357
relative viability (COR-L 105; first compound 0.8 µM): 0.477
relative viability (COR-L 105; first compound 2.53 µM): 0.502
relative viability (IA-LM; first compound 0.253 µM): 0.312
relative viability (IA-LM; first compound 0.8 µM): 0.328
relative viability (IA-LM; first compound 2.53 µM): 0.301
relative viability (NCI-H520; first compound 0.08 µM): 0.336
relative viability (NCI-H520; first compound 0.253 µM): 0.233
relative viability (NCI-H520; first compound 0.8 µM): 0.311
relative viability (NCI-H520; first compound 2.53 µM): 0.316
relative viability (NCI-H1299; first compound 0.08 µM): 0.911
relative viability (NCI-H1299; first compound 0.253 µM): 0.777
relative viability (NCI-H1299; first compound 0.8 µM): 0.773
relative viability (NCI-H1299; first compound 2.53 µM): 0.661
relative viability (LCLC-103H; first compound 0.08 µM): 0.681
relative viability (LCLC-103H; first compound 0.253 µM): 0.558
relative viability (LCLC-103H; first compound 0.8 µM): 0.55
relative viability (LCLC-103H; first compound 2.53 µM): 0.608
relative viability (NCI-H1703; first compound 0.08 µM): 0.232
relative viability (NCI-H1703; first compound 0.253 µM): 0.272
relative viability (NCI-H1703; first compound 0.8 µM): 0.26
relative viability (NCI-H1703; first compound 2.53 µM): 0.252

O=c1cc(-c2cccc3c2Sc2ccccc2S3)oc(N2CCOCC2)c1 + CS(=O)(=O)N1CCN(Cc2cc3nc(-c4cccc5[nH]ncc45)nc(N4CCOCC4)c3s2)CC1 [Pictilisib] (partner 1 µM)
relative viability (NCI-H1355; first compound 0.08 µM): 0.457
relative viability (NCI-H1355; first compound 0.253 µM): 0.456
relative viability (NCI-H1355; first compound 0.8 µM): 0.362
relative viability (NCI-H1355; first compound 2.53 µM): 0.405
relative viability (NCI-H1355; first compound 8 µM): 0.344
relative viability (LK-2; first compound 0.08 µM): 0.608
relative viability (LK-2; first compound 0.253 µM): 0.51
relative viability (LK-2; first compound 0.8 µM): 0.708
relative viability (LK-2; first compound 2.53 µM): 0.503
relative viability (LK-2; first compound 8 µM): 0.725
relative viability (A549; first compound 0.08 µM): 0.542
relative viability (A549; first compound 0.253 µM): 0.852
relative viability (A549; first compound 0.8 µM): 0.681
relative viability (A549; first compound 2.53 µM): 0.481
relative viability (A549; first compound 8 µM): 0.651
relative viability (EBC-1; first compound 0.08 µM): 0.352
relative viability (EBC-1; first compound 0.253 µM): 0.469
relative viability (EBC-1; first compound 0.8 µM): 0.342
relative viability (EBC-1; first compound 2.53 µM): 0.401
relative viability (EBC-1; first compound 8 µM): 0.298
relative viability (Calu-6; first compound 0.08 µM): 0.86
relative viability (Calu-6; first compound 0.253 µM): 0.882
relative viability (Calu-6; first compound 0.8 µM): 0.96
relative viability (Calu-6; first compound 2.53 µM): 0.959
relative viability (Calu-6; first compound 8 µM): 0.871
relative viability (COR-L 105; first compound 0.08 µM): 0.502
relative viability (COR-L 105; first compound 0.253 µM): 0.441
relative viability (COR-L 105; first compound 0.8 µM): 0.362
relative viability (COR-L 105; first compound 2.53 µM): 0.338
relative viability (COR-L 105; first compound 8 µM): 0.408
relative viability (IA-LM; first compound 0.08 µM): 0.278
relative viability (IA-LM; first compound 0.8 µM): 0.328
relative viability (IA-LM; first compound 2.53 µM): 0.346
relative viability (IA-LM; first compound 8 µM): 0.315
relative viability (NCI-H520; first compound 0.08 µM): 0.308
relative viability (NCI-H520; first compound 0.253 µM): 0.354
relative viability (NCI-H520; first compound 0.8 µM): 0.306
relative viability (NCI-H520; first compound 2.53 µM): 0.273
relative viability (NCI-H520; first compound 8 µM): 0.374
relative viability (NCI-H1299; first compound 0.08 µM): 0.679
relative viability (NCI-H1299; first compound 0.253 µM): 0.827
relative viability (NCI-H1299; first compound 0.8 µM): 0.856
relative viability (NCI-H1299; first compound 2.53 µM): 0.763
relative viability (NCI-H1299; first compound 8 µM): 0.854
relative viability (LCLC-103H; first compound 0.08 µM): 0.63
relative viability (LCLC-103H; first compound 0.253 µM): 0.531
relative viability (LCLC-103H; first compound 0.8 µM): 0.505
relative viability (LCLC-103H; first compound 2.53 µM): 0.489
relative viability (LCLC-103H; first compound 8 µM): 0.616
relative viability (NCI-H1703; first compound 0.253 µM): 0.25
relative viability (NCI-H1703; first compound 0.8 µM): 0.279
relative viability (NCI-H1703; first compound 2.53 µM): 0.241
relative viability (NCI-H1703; first compound 8 µM): 0.316

O=c1cc(-c2cccc3c2Sc2ccccc2S3)oc(N2CCOCC2)c1 + C[C@]1(O)C[C@@H](c2nc(-c3ccc4ccc(-c5ccccc5)nc4c3)c3c(N)nccn32)C1 [Linsitinib] (partner 1 µM)
relative viability (NCI-H1355; first compound 0.08 µM): 0.853
relative viability (NCI-H1355; first compound 0.253 µM): 0.937
relative viability (NCI-H1355; first compound 0.8 µM): 0.818
relative viability (NCI-H1355; first compound 2.53 µM): 0.712
relative viability (NCI-H1355; first compound 8 µM): 0.689
relative viability (LK-2; first compound 0.08 µM): 0.64
relative viability (LK-2; first compound 0.253 µM): 0.527
relative viability (LK-2; first compound 0.8 µM): 0.549
relative viability (LK-2; first compound 2.53 µM): 0.533
relative viability (LK-2; first compound 8 µM): 0.651
relative viability (A549; first compound 0.08 µM): 0.586
relative viability (A549; first compound 0.253 µM): 0.863
relative viability (A549; first compound 0.8 µM): 0.564
relative viability (A549; first compound 2.53 µM): 0.583
relative viability (A549; first compound 8 µM): 0.666
relative viability (EBC-1; first compound 0.08 µM): 0.706
relative viability (EBC-1; first compound 0.253 µM): 1.14
relative viability (EBC-1; first compound 0.8 µM): 0.828
relative viability (EBC-1; first compound 2.53 µM): 0.871
relative viability (EBC-1; first compound 8 µM): 0.91
relative viability (Calu-6; first compound 0.08 µM): 0.909
relative viability (Calu-6; first compound 0.253 µM): 1.08
relative viability (Calu-6; first compound 0.8 µM): 0.988
relative viability (Calu-6; first compound 2.53 µM): 0.934
relative viability (Calu-6; first compound 8 µM): 1.02
relative viability (COR-L 105; first compound 0.08 µM): 0.771
relative viability (COR-L 105; first compound 0.253 µM): 1.11
relative viability (COR-L 105; first compound 0.8 µM): 0.823
relative viability (COR-L 105; first compound 2.53 µM): 0.958
relative viability (COR-L 105; first compound 8 µM): 1.07
relative viability (IA-LM; first compound 0.08 µM): 0.695
relative viability (IA-LM; first compound 0.253 µM): 0.919
relative viability (IA-LM; first compound 0.8 µM): 0.491
relative viability (IA-LM; first compound 2.53 µM): 0.465
relative viability (IA-LM; first compound 8 µM): 0.343
relative viability (NCI-H520; first compound 0.08 µM): 0.897
relative viability (NCI-H520; first compound 0.253 µM): 1.06
relative viability (NCI-H520; first compound 0.8 µM): 1.15
relative viability (NCI-H520; first compound 2.53 µM): 0.972
relative viability (NCI-H520; first compound 8 µM): 1.02
relative viability (NCI-H1299; first compound 0.08 µM): 0.987
relative viability (NCI-H1299; first compound 0.253 µM): 1
relative viability (NCI-H1299; first compound 0.8 µM): 1.05
relative viability (NCI-H1299; first compound 2.53 µM): 1.03
relative viability (NCI-H1299; first compound 8 µM): 0.984
relative viability (LCLC-103H; first compound 0.08 µM): 1.06
relative viability (LCLC-103H; first compound 0.253 µM): 1.1
relative viability (LCLC-103H; first compound 0.8 µM): 1.08
relative viability (LCLC-103H; first compound 2.53 µM): 1.06
relative viability (LCLC-103H; first compound 8 µM): 1.06
relative viability (NCI-H1703; first compound 0.08 µM): 0.237
relative viability (NCI-H1703; first compound 0.253 µM): 0.636
relative viability (NCI-H1703; first compound 0.8 µM): 1.02
relative viability (NCI-H1703; first compound 2.53 µM): 0.779
relative viability (NCI-H1703; first compound 8 µM): 0.636

From the supplement of paper PMC10307832
